The values below come from patent publication US6780875B2, “Quinoline-4-carboxamide derivatives as NK-3 and NK-2 receptor antagonists” (SmithKline Beecham S.p.A., priority 1998, dated 2004).

`C[C@H](NC(=O)c1c(CN2CCN(C(=O)CN3CCN(C)CC3)CC2)c(-c2ccccc2)nc2ccccc12)C1CCCCC1` [Example 48, 3-{4-[2-(4-Methyl-piperazin-1-yl)-ethanoyl]-piperazin-1-ylmethyl}-2-phenyl-quinoline-4-carboxylic acid ((S)-1-cyclohexyl-ethyl)-amide] showed a melting point of 162 to 163 °C.
The value for `C[C@H](NC(=O)c1c(CN2CCOCC2)c(-c2ccccc2)nc2ccccc12)C1CCCCC1` [Example 54, 3-Morpholin-4-ylmethyl-2-phenyl-quinoline-4-carboxylic acid ((S)-1-cyclohexyl-ethyl)-amide] was 178 to 180 °C; that for `CC[C@H](NC(=O)c1c(CN2CCC(N)CC2)c(-c2ccccc2)nc2ccccc12)c1ccccc1` [Example 55, 3-(4-Amino-piperidin-1-ylmethyl)-2-phenyl-quinoline-4-carboxylic acid ((S)-1-phenyl-propyl)-amide] was 98 to 102 °C; that for `CC[C@H](NC(=O)c1c(CN2CCN(c3ccccn3)CC2)c(-c2ccccc2)nc2ccccc12)c1ccccc1` [Example 56, 2-Phenyl-3-(4-pyridin-2-yl-piperazin-1-ylmethyl)-quinoline-4-carboxylic acid ((S)-1-phenyl-propyl)-amide] was 125 to 126 °C.
Under `COCCN(CCOC)Cc1c(-c2ccccc2)nc2ccccc2c1C(=O)N[C@@H](C)C1CCCCC1` [Example 58, 3-{[Bis-(2-methoxy-ethyl)-amino]-methyl}-2-phenyl-quinoline-4-carboxylic acid ((S)-1-cyclohexyl-ethyl)-amide] stands 114 to 115 °C; under `C[C@H](NC(=O)c1c(CN2CCN(c3ccccn3)CC2)c(-c2ccccc2)nc2ccccc12)C1CCCCC1` [Example 59, 2-Phenyl-3-(4-pyridin-2-yl-piperazin-1-ylmethyl)-quinoline-4-carboxylic acid ((S)-1-cyclohexyl-ethyl)-amide], 152 to 154 °C.
In turn, `CC[C@H](NC(=O)c1c(CN2C[C@@H](C)N[C@@H](C)C2)c(-c2ccccc2)nc2ccccc12)c1ccccc1` [Example 60, 3-((3R,5S)-3,5-Dimethyl-piperazin-1-ylmethyl)-2-phenyl-quinoline-4-carboxylic acid ((S)-1-phenyl-propyl)-amide] displayed a melting point of 114 to 120 °C.
The value for `C[C@H](NC(=O)c1c(CN2CCC3(CC2)OCCO3)c(-c2ccccc2)nc2ccccc12)C1CCCCC1` [Example 61, 3-(1,4-Dioxa-8-aza-spiro[4.5]dec-8-ylmethyl)-2-phenyl-quinoline-4-carboxylic acid ((S)-1-cyclohexyl-ethyl)-amide] was 184 to 185 °C.
For `CC[C@H](NC(=O)c1c(CN2CCC(N3CCN(C)CC3)CC2)c(-c2ccccc2)nc2ccccc12)c1ccccc1` [Example 62, 3-[4-(4-Methyl-piperazin-1-yl)-piperidin-1-ylmethyl]-2-phenyl-quinoline-4-carboxylic acid ((S)-1-phenyl-propyl)-amide], the melting point fell in the range of 85 to 100 °C.
The value for `CC[C@H](NC(=O)c1c(CN2CCC3(CC2)CNC(=O)C3)c(-c2ccccc2)nc2ccccc12)c1ccccc1` [Example 63, 3-(3-Oxo-2,8-diaza-spiro[4.5]dec-8-ylmethyl)-2-phenyl-quinoline-4-carboxylic acid ((S)-1-phenyl-propyl)-amide] was 129 to 131 °C.
`CC[C@H](NC(=O)c1c(CN2CCC(N3CCCCC3)CC2)c(-c2ccccc2)nc2c(Br)c(OC)ccc12)c1ccccc1` [Example 66, 3-[1,4′]Bipiperidinyl-1′-ylmethyl-8-bromo-7-methoxy-2-phenyl-quinoline-4-carboxylic acid ((S)-1-phenyl-propyl)-amide] gave a melting point of 156 to 160 °C.
Under `C[C@H](NC(=O)c1c(CN2CCN(c3c(N4CCCC4)c(=O)c3=O)CC2)c(-c2ccccc2)nc2ccccc12)C1CCCCC1` [Example 72, 3-[4-(3,4-Dioxo-2-pyrrolidin-1-yl-cyclobut-1-enyl)-piperazin-1-ylmethyl]-2-phenyl-quinoline-4-carboxylic acid ((S)-1-cyclohexyl-ethyl)-amide] stands 170 to 180 °C; under `CNC(=NC#N)N1CCN(Cc2c(-c3ccccc3)nc3ccccc3c2C(=O)N[C@@H](C)C2CCCCC2)CC1` [Example 73, 3-[4-(-1-Cyanoimino-1-methylamino-methyl)-piperazin-1-ylmethyl]-2-phenyl-quinoline-4-carboxylic acid ((S)-1-cyclohexyl-ethyl)amide], 175 to 180 °C; under `C[C@H](NC(=O)c1c(CN2CCN(C3=NCCS3)CC2)c(-c2ccccc2)nc2ccccc12)C1CCCCC1` [Example 74, 3-[4-(4,5-Dihydro-thiazol-2-yl)-piperazin-1-ylmethyl]-2-phenyl-quinoline-4-carboxylic acid ((S)-1-cyclohexyl-ethyl)-amide], 174 to 176 °C.
Under `CNC(=S)N1CCN(Cc2c(-c3ccccc3)nc3ccccc3c2C(=O)N[C@@H](C)C2CCCCC2)CC1` [Example 75, 3-(4-Methylthiocarbamoyl-piperazin-1-ylmethyl)-2-phenyl-quinoline-4-carboxylic acid ((S)-1-cyclohexyl-ethyl)-amide] stands 204 to 206 °C; under `C[C@H](NC(=O)c1c(CN2CCN(C(=NC#N)N3CCCC3)CC2)c(-c2ccccc2)nc2ccccc12)C1CCCCC1` [Example 76, 3-[4-(1-Cyanoimino-1-pyrrolidin-1-yl-methyl)-piperazin-1-ylmethyl]-2-phenyl-quinoline-4-carboxylic acid ((S)-1-cyclohexyl-ethyl)-amide], 154 to 155 °C.
`CC[C@H](NC(=O)c1c(CN2CCC(N3CCNC3=O)CC2)c(-c2ccccc2)nc2ccccc12)c1ccccc1` [Example 77, 3-[4-(2-Oxo-imidazolidin-1-yl)-piperidin-1-ylmethyl]-2-phenyl-quinoline-4-carboxylic acid ((S)-1-phenyl-propyl)-amide] displayed a melting point of 240 to 242 °C.
With `CCN(CC)CCC(=O)N1CCN(Cc2c(-c3ccccc3)nc3ccccc3c2C(=O)N[C@H](c2ccccc2)C(C)C)CC1` [Example 80, 3-[4-(3-Diethylamino-propanoyl)-piperazin-1-ylmethyl]-2-phenyl-quinoline-4-carboxylic acid ((S)-2-methyl-1-phenyl-propyl)-amide], the melting point lay in the range of 120 to 125 °C.
Consider `C[C@H](NC(=O)c1c(CN2CCN(C(=C[N+](=O)[O-])N3CCCC3)CC2)c(-c2ccccc2)nc2ccccc12)C1CCCCC1` [Example 81, 3-[4-(2-Nitro-1-pyrrolidin-1-yl-vinyl)-piperazin-1-ylmethyl]-2-phenyl-quinoline-4-carboxylic acid ((S)-1-cyclohexyl-ethyl)-amide], for which the melting point lay within 164 to 165 °C.
Under `C[C@H](NC(=O)c1c(CN2CCN(C(=O)CCC(=O)O)CC2)c(-c2ccccc2)nc2ccccc12)C1CCCCC1` [Example 83, 4-{4-[4-((S)-1-Cyclohexyl-ethylcarbamoyl)-2-phenyl-quinolin-3-ylmethyl]-piperazin-1-yl}-4-oxo-butyric acid] stands 208 to 209 °C; under `C[C@H](NC(=O)c1c(CN2CCN(C(=NS(C)(=O)=O)N3CCCC3)CC2)c(-c2ccccc2)nc2ccccc12)C1CCCCC1` [Example 84, 3-[4-(1-Methanesulfonylimino-1-pyrrolidin-1-yl-methyl)-piperazin-1-ylmethyl]-2-phenyl-quinoline-4-carboxylic acid ((S)-1-cyclohexyl-ethyl)-amide], 130 to 140 °C.
In turn, `CC(C)[C@H](NC(=O)c1c(CN2CCN(C(=O)CCC(=O)O)CC2)c(-c2ccccc2)nc2ccccc12)c1ccccc1` [Example 85, 4-{4-[4-((S)-2-Methyl-1-phenyl-propylcarbamoyl)-2-phenyl-quinolin-3-ylmethyl]-piperazin-1-yl}-4-oxo-butyric acid] had a melting point of 173 to 175 °C.
As to `CC(C)[C@H](NC(=O)c1c(CN2CCN(C(=O)c3ccccc3C(=O)O)CC2)c(-c2ccccc2)nc2ccccc12)c1ccccc1` [Example 86, 2-(1-{4-[4-((S)-2-Methyl-1-phenyl-propylcarbamoyl)-2-phenyl-quinolin-3-ylmethyl]-piperazin-1-yl}-methanoyl)-benzoic acid], the melting point lay within 189 to 191 °C.
In turn, `C[C@H](NC(=O)c1c(CN2CCN(C(=O)c3ccccc3C(=O)O)CC2)c(-c2ccccc2)nc2ccccc12)C1CCCCC1` [Example 87, 2-(1-{4-[4-((S)-1-Cyclohexyl-ethylcarbamoyl)-2-phenyl-quinolin-3-ylmethyl]-piperazin-1-yl}-methanoyl)-benzoic acid] registered a melting point of 209 to 211 °C.
The value for `COc1ccc2c(C(=O)N[C@@H](C)C3CCCCC3)c(CN3CCC(N4CCCCC4)CC3)c(-c3ccccc3)nc2c1` [Example 88, 3-[1,4′]Bipiperidinyl-1′-ylmethyl-7-methoxy-2-phenyl--quinoline-4-carboxylic acid ((S)-1-cyclohexyl-ethyl)-amide] was 139 to 144 °C (dec.); that for `CC[C@H](NC(=O)c1c(CN2CCC(N3CCCCC3)CC2)c(-c2ccccc2)nc2c(Cl)c(O)ccc12)c1ccccc1` [Example 89, 3-[1,4′]Bipiperidinyl-1′-ylmethyl-8-chloro-7-hydroxy-2-phenyl-quinoline-4-carboxylic acid ((S)-1-phenyl-propyl)-amide] was 209 to 216 °C (dec.); that for `CC[C@H](NC(=O)c1c(CN2CCN(S(N)(=O)=O)CC2)c(-c2ccccc2)nc2ccccc12)c1ccccc1` [Example 90, 2-Phenyl-3-(4-sulfamoyl-piperazin-1-ylmethyl)-quinoline-4-carboxylic acid ((S)-1-phenyl-propyl)-amide] was 133 °C (dec.).
The value for `CC[C@H](NC(=O)c1c(CN2CCN(S(=O)(=O)N(C)C)CC2)c(-c2ccccc2)nc2ccccc12)c1ccccc1` [Example 91, 3-(4-Dimethylsulfamoyl-piperazin-1-ylmethyl)-2-phenyl-quinoline-4-carboxylic acid ((S)-1-phenyl-propyl)-amide] was 107 to 111 °C (dec.).

The melting point is the temperature, or range, at which the solid turns liquid.
